# Data from patent US12508266B2 (priority 2010, dated 2025).
# Tested on: A/NJ/15/2007 (H1N1-H274Y)
# Assay type: cell-based, influenza
structure (smiles),measurement,value
"Nc1ncnc2c([C@@H]3N[C@H](CO)[C@@H](O)[C@H]3O)c[nH]c12 [Compound 1, (2S,3S,4R,5R)-2-(4-Amino-5H-pyrrolo[3,2-d]pyrimidin-7-yl)-5-(hydroxymethyl) pyrrolidine-3,4-diol]",EC50,1.39 µg/mL
